In patent US20050089473A1, “Potassium channel mediated delivery of agents through the blood-brain barrier” (Cedars-Sinai Medical Center, priority 2003, published 2005):
Structures can show the parent of a compound that is named as a salt.

Columns and labels:
[1] = tested on: GBM and RG2 brain tumors; assay: GFP-adenoviral and erbB-2 antibody delivery across the BTB; type: in vivo, rat
Method: GFP-Adv constructs were prepared as described by Smith et al. (Smith, G. M., Berry, R. L., Yang, J., and Tanelian, D. Electrophysiological analysis of dorsal root ganglion neurons pre- and post-coexpression of green fluorescent protein and functional 5-HHT3 recepter. J. Neurophysiol. 77:3115-3121, 1997) with slight modifications. GFP gene was first cloned into a shuttle vector, pAdTrack-CMV, and the resultant plasmid was linearized by digesting it with restriction endonuclease Pipe I, and subsequently co-transformed into E. Coli cells with an adenoviral backbone plasmid, pAdEasy-1. Recombinant plasmids were transfected into 293 cells. The presence of recombinant adenoviruses was verified by RT-PCR. GFP-Adv (1×10^9 pfu/ml) was infused intracarotidly (i.c.) with or without MS in rats with implanted GBM. Neu rabbits polyclonal and Her-2 MAb, which are specific for rat and human erbB-2 receptors, respectively, were used. […] Her-2 MAbs bound to Her-2 receptors, in vivo was detected by incubating rat brain cryosections as per the manufacturer's (Molecular Probes, OR) procedure with Alexa Flour-647 conjugated secondary antibody (Zecon labeling kit) that specifically binds to the IgG1 fragment of Her-2 MAb. Neu antibody binding to erbB-2 receptors in RG2 brain tumor sections was detected using anti-rabbit IgG conjugated with TRITC. […]

[2] = tested on: RG2 tumor capillary endothelium; assay: Transmission electron microscopy of vesicular transport in tumor capillary endothelium; type: in vivo, rat; settings: i.c. MS 30 μg/kg/min 15 min
Excerpt: S., Rao, […]., and Black, K. L. Regulation of blood-brain tumor barrier permeability by calcium-activated potassium channels J. Pharmacol. Exp. Ther., 301:838-851, 2002). […] S., Rao, […]., and Black, K. L. Regulation of blood-brain tumor barrier permeability by calcium-activated potassium channels J. Pharmacol. Exp. Ther., 301:838-851, 2002). Briefly, micrographs were placed on a digitizing screen and structural features measued using Scan […]TM, a computer-assisted, image analysis system (Jandel Scientific, Corte Madera, Calif.). Abluminal and luminal circumferences, areas of endothelial cytoplasm excluding nuclei and vacuoles, and mean thickness of endothelial cytoplasm were measured and compared with those in the control group. The mean thickness of endothelium was calculated by subtraction of the luminal radius from the abluminal radius, which was obtained from the areas encircled by the luminal and abluminal circumferences, respectively. The proportion of total vesicular area to the cytoplasmic area was expressed as a percentage in order to derive another parameter to characterize vesicular transport.

[3] = tested on: metastatic lung brain tumors; assay: [14C]AIB uptake in metastatic lung brain tumor model; type: in vivo; settings: intravenous co-injection

Nc1cc(N2CCCCC2)nc(N)[n+]1OS(=O)(=O)[O-] [MS, minoxidil sulfate]
Delivery of Her-2 MAb and Neu antibody to brain tumor ([1]; MS 30 μg/kg/min i.c. 15 min, then antibody 1 mg/kg): enhanced delivery of Her-2 MAb selectively to GBM and Neu to RG2
Delivery of adv-GFP to brain tumor ([1]; MS i.c. with GFP-Adv 1×10^9 pfu/ml, GBM nude rats): enhanced adv-GFP delivery to brain tumors
Endothelial tight junction indices in tumor capillaries [2]: did not alter the endothelial tight junction indices
Vesicular density in tumor capillary endothelium [2]: significantly increased vesicular density
Increase of [14C]AIB uptake to the tumor [3]: approximately three-fold
